From patent publication US12532661B2, “Compound and organic light emitting device comprising the same” (LG Chem, Ltd., priority 2020, dated 2026)

Test: Solubility experiment in cyclohexanone (CHON)
Format: physicochemical
Details: normal temperature/pressure, whether 0.1 wt % or more was dissolved
Experimental: In order to confirm the solubility in the solvent used in the solution process of the compounds prepared in the Preparation Examples and the comparative compounds, each of them was dissolved in the solvent cyclohexanone (CHON) under normal temperature/pressure conditions, and it was confirmed whether 0.1 wt % or more was dissolved.

| SMILES | Solubility, Solvent CHON |
| --- | --- |
| Cc1cccc(N(c2ccc3c4c5ccc6c(c5ccc4n(-c4ccccc4)c3c2)c2ccc(N(c3ccc4c5c7ccc8c(c7ccc5n(-c5ccccc5)c4c3)c3ccc(N(c4cccc(C)c4)c4cccc5c4oc4ccccc45)cc3n8-c3ccccc3)c3ccc4c5c7ccc8c(c7ccc5n(-c5ccccc5)c4c3)c3ccc(N(c4cccc(C)c4)c4cccc5c4oc4ccccc45)cc3n8-c3ccccc3)cc2n6-c2ccccc2)c2cccc3c2oc2ccccc23)c1 [Compound 1] | ○ (Evaluation list (○): 0.1 wt. % or more soluble) |
| c1ccc(-n2c3ccccc3c3cc(-c4ccc(N(c5ccc6ccccc6c5)c5ccc6c7c8ccc9c(c8ccc7n(-c7ccccc7)c6c5)c5ccc(N(c6ccc7c8c%10ccc%11c(c%10ccc8n(-c8ccccc8)c7c6)c6ccc(N(c7ccc(-c8ccc%10c(c8)c8ccccc8n%10-c8ccccc8)cc7)c7ccc8ccccc8c7)cc6n%11-c6ccccc6)c6ccc7c8c%10ccc%11c(c%10ccc8n(-c8ccccc8)c7c6)c6ccc(N(c7ccc(-c8ccc%10c(c8)c8ccccc8n%10-c8ccccc8)cc7)c7ccc8ccccc8c7)cc6n%11-c6ccccc6)cc5n9-c5ccccc5)cc4)ccc32)cc1 [Compound 3] | ○ (Evaluation list (○): 0.1 wt. % or more soluble) |
| Cc1cccc(N(c2ccc3c4c5ccc6c(c5ccc4n(-c4ccccc4)c3c2)c2ccc(-c3cc(-c4ccc5c7c8ccc9c(c8ccc7n(-c7ccccc7)c5c4)c4ccc(N(c5cccc(C)c5)c5cccc7c5oc5ccccc57)cc4n9-c4ccccc4)cc(-c4ccc5c7c8ccc9c(c8ccc7n(-c7ccccc7)c5c4)c4ccc(N(c5cccc(C)c5)c5cccc7c5oc5ccccc57)cc4n9-c4ccccc4)c3)cc2n6-c2ccccc2)c2cccc3c2oc2ccccc23)c1 [Compound 4] | ○ (Evaluation list (○): 0.1 wt. % or more soluble) |
| CC(C)(C)c1ccc(N(c2ccc(C(C)(C)C)cc2)c2ccc3c4c5ccc6c(c5ccc4n(-c4ccccc4)c3c2)c2ccc(-c3cc(-c4ccc5c7c8ccc9c(c8ccc7n(-c7ccccc7)c5c4)c4ccc(N(c5ccc(C(C)(C)C)cc5)c5ccc(C(C)(C)C)cc5)cc4n9-c4ccccc4)cc(-c4ccc5c7c8ccc9c(c8ccc7n(-c7ccccc7)c5c4)c4ccc(N(c5ccc(C(C)(C)C)cc5)c5ccc(C(C)(C)C)cc5)cc4n9-c4ccccc4)c3)cc2n6-c2ccccc2)cc1 [Compound 5] | ○ (Evaluation list (○): 0.1 wt. % or more soluble) |
| CC(C)(C)c1ccc(N(c2ccc(C(C)(C)C)cc2)c2ccc3c4c5ccc6c(c5ccc4n(-c4ccccc4)c3c2)c2ccc(N(c3ccc(C(C)(C)C)cc3)c3cc(N(c4ccc(C(C)(C)C)cc4)c4ccc5c7c8ccc9c(c8ccc7n(-c7ccccc7)c5c4)c4ccc(N(c5ccc(C(C)(C)C)cc5)c5ccc(C(C)(C)C)cc5)cc4n9-c4ccccc4)cc(N(c4ccc(C(C)(C)C)cc4)c4ccc5c7c8ccc9c(c8ccc7n(-c7ccccc7)c5c4)c4ccc(N(c5ccc(C(C)(C)C)cc5)c5ccc(C(C)(C)C)cc5)cc4n9-c4ccccc4)c3)cc2n6-c2ccccc2)cc1 [Compound 12] | ○ (Evaluation list (○): 0.1 wt. % or more soluble) |
| Cc1cccc(N(c2ccc3c4c5ccc6c(c5ccc4n(-c4ccccc4)c3c2)c2ccc(Oc3cc(Oc4ccc5c7c8ccc9c(c8ccc7n(-c7ccccc7)c5c4)c4ccc(N(c5cccc(C)c5)c5cccc7c5oc5ccccc57)cc4n9-c4ccccc4)cc(Oc4ccc5c7c8ccc9c(c8ccc7n(-c7ccccc7)c5c4)c4ccc(N(c5cccc(C)c5)c5cccc7c5oc5ccccc57)cc4n9-c4ccccc4)c3)cc2n6-c2ccccc2)c2cccc3c2oc2ccccc23)c1 [Compound 14] | ○ (Evaluation list (○): 0.1 wt. % or more soluble) |
| Cc1cccc(N(c2ccc3c4c5ccc6c(c5ccc4n(-c4ccccc4)c3c2)c2ccc(Oc3cccc(-c4cc(-c5cccc(Oc7ccc8c9c%10ccc%11c(c%10ccc9n(-c9ccccc9)c8c7)c7ccc(N(c8cccc(C)c8)c8cccc9c8oc8ccccc89)cc7n%11-c7ccccc7)c5)cc(-c5cccc(Oc7ccc8c9c%10ccc%11c(c%10ccc9n(-c9ccccc9)c8c7)c7ccc(N(c8cccc(C)c8)c8cccc9c8oc8ccccc89)cc7n%11-c7ccccc7)c5)c4)c3)cc2n6-c2ccccc2)c2cccc3c2oc2ccccc23)c1 [Compound 15] | ○ (Evaluation list (○): 0.1 wt. % or more soluble) |
| Cc1cccc(N(c2ccc3c4c5ccc6c(c5ccc4n(-c4ccccc4)c3c2)c2ccc(Oc3ccc(-c4cc(-c5ccc(Oc7ccc8c9c%10ccc%11c(c%10ccc9n(-c9ccccc9)c8c7)c7ccc(N(c8cccc(C)c8)c8cccc9c8oc8ccccc89)cc7n%11-c7ccccc7)cc5)cc(-c5ccc(Oc7ccc8c9c%10ccc%11c(c%10ccc9n(-c9ccccc9)c8c7)c7ccc(N(c8cccc(C)c8)c8cccc9c8oc8ccccc89)cc7n%11-c7ccccc7)cc5)c4)cc3)cc2n6-c2ccccc2)c2cccc3c2oc2ccccc23)c1 [Compound 16] | ○ (Evaluation list (○): 0.1 wt. % or more soluble) |
| Cc1cccc(N(c2ccc3c(c2)c2c4ccc5c(c4ccc2n3-c2ccccc2)c2cc(N(c3ccc4c(c3)c3c6ccc7c(c6ccc3n4-c3ccccc3)c3cc(N(c4cccc(C)c4)c4cccc6c4oc4ccccc46)ccc3n7-c3ccccc3)c3ccc4c(c3)c3c6ccc7c(c6ccc3n4-c3ccccc3)c3cc(N(c4cccc(C)c4)c4cccc6c4oc4ccccc46)ccc3n7-c3ccccc3)ccc2n5-c2ccccc2)c2cccc3c2oc2ccccc23)c1 [Compound 17] | ○ (Evaluation list (○): 0.1 wt. % or more soluble) |
| Cc1cccc(N(c2cccc3c2oc2ccccc23)c2cccc3c2c2c4ccc5c(c4ccc2n3-c2ccccc2)c2c(N(c3cccc4c3c3c6ccc7c(c6ccc3n4-c3ccccc3)c3c(N(c4cccc(C)c4)c4cccc6c4oc4ccccc46)cccc3n7-c3ccccc3)c3cccc4c3c3c6ccc7c(c6ccc3n4-c3ccccc3)c3c(N(c4cccc(C)c4)c4cccc6c4oc4ccccc46)cccc3n7-c3ccccc3)cccc2n5-c2ccccc2)c1 [Compound 19] | ○ (Evaluation list (○): 0.1 wt. % or more soluble) |
